Measured values from ChEMBL document CHEMBL3797025, “Spirooxadiazoline oxindoles with promising in vitro antitumor activities” (Medchemcomm, 2016).
Calls of active or inactive are those of the source. The calls are words filed in the database; no cut-off is given here.

How the values were obtained:
HepG2 = assay: Antiproliferative activity against human HepG2 cells expressing wild-type P53 measured after 72 hrs by MTS assay; assay type: functional; settings: HepG2, 72 h
[1] = Antiproliferative activity against human p53 -/- HCT116 cells measured after 72 hrs by MTS assay; assay type: functional; settings: HCT-116, 72 h
[2] = Antiproliferative activity against human SW620 cells expressing P53 mutant measured after 72 hrs by MTS assay; assay type: functional; settings: SW-620, 72 h
[3] = Antiproliferative activity against human p53 +/+ HCT116 cells measured after 72 hrs by MTS assay; assay type: functional; settings: HCT-116, 72 h
[4] = target: Cellular tumor antigen p53 (Homo sapiens) (UniProt P04637); assay: Induction of p53 phosphorylation at serine-15 in human p53 +/+ HCT 116 cells bat 5 or 10 uM after 24 hrs by western blot analysis; assay type: cell-based
Chain of Cellular tumor antigen p53 (Homo sapiens) (P04637 whole entry, looked up): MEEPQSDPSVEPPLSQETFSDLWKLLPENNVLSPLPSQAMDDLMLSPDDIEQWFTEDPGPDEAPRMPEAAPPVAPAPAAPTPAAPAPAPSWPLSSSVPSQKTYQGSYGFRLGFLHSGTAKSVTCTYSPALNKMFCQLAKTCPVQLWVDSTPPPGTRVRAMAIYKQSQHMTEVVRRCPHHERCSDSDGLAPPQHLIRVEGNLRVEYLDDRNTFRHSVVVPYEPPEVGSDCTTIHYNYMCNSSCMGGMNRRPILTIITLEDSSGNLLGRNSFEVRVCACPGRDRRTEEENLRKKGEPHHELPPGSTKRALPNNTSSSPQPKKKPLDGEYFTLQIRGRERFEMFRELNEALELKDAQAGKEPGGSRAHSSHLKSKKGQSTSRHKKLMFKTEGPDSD

HCT-116 [5] = assay: Induction of apoptosis in human p53 +/+ HCT116 cells assessed as increase in PARP cleavage at 5 or 10 uM after 24 hrs by western blot analysis; assay type: functional, cell-based
[6] = Half life in Sprague-Dawley rat liver microsomes at 37 degC in presence of NADPH generating system by HPLC analysis; assay type: ADME
[7] = Chemical stability in phosphate buffer at pH 7.4 and 37 degC measured for 3 days by HPLC analysis; assay type: physicochemical; settings: pH 7.4, 72 h
HCT-116 [8] = assay: Induction of apoptosis in human p53 +/+ HCT116 cells assessed as activation of caspase3 at 5 or 10 uM after 24 hrs by Caspase-Glo 3/7 assay; assay type: functional, cell-based
HCT-116 [9] = assay: Induction of apoptosis in human p53 +/+ HCT116 cells assessed as activation of caspase7 at 5 or 10 uM after 24 hrs by Caspase-Glo 3/7 assay; assay type: functional, cell-based
[10] = Metabolic stability at human plasma assessed as compound degradation at 37 degC after 72 hrs by HPLC analysis; assay type: ADME, cell-free; settings: read-out: Drug degradation

Compound	GI50 [1] [µM]	GI50 [3] [µM]	other results
O=C1Nc2ccc(Br)cc2[C@]12ON=C(c1ccc(Cl)cc1)N2c1cccc(Cl)c1	12.3	7.7	GI50 (HepG2): 4.1 µM; GI50 [2]: 8 µM
O=C1Nc2cc(Cl)ccc2[C@]12ON=C(c1ccc(Cl)cc1)N2c1ccc(Cl)cc1	–	13.2	–
O=C1Nc2ccc(Br)cc2[C@]12ON=C(c1cccc(Cl)c1)N2c1cccc(Cl)c1F	2	1.7	GI50 (HepG2): 1.2 µM; GI50 [2]: 2 µM
O=C1Nc2ccccc2[C@]12ON=C(c1ccccc1)N2c1ccc(Cl)cc1	–	54.5	–
O=C1Nc2ccccc2[C@]12ON=C(c1cccc(Cl)c1)N2c1cccc(Cl)c1	–	32.6	–
O=C1Nc2ccc(Cl)cc2[C@]12ON=C(c1ccccc1)N2c1cccc(Cl)c1	41.6	26.4	–
O=C1Nc2ccc(Cl)cc2[C@]12ON=C(c1ccc(Cl)cc1)N2c1ccc(Cl)cc1	18	17.6	–
O=C1Nc2cc(Cl)ccc2[C@]12ON=C(c1cccc(Cl)c1)N2c1ccc(Cl)cc1	–	28.7	–
O=C1Nc2ccc(Br)cc2[C@]12ON=C(c1ccccc1)N2c1ccc(Cl)cc1	25.8	21.9	–
O=C1Nc2ccc(Cl)cc2[C@]12ON=C(c1ccccc1)N2c1ccccc1	–	39.1	–
O=C1Nc2ccc(Cl)cc2[C@]12ON=C(c1cccc(Cl)c1)N2c1ccc(Cl)cc1	21.8	21.3	–
O=C1Nc2ccc(Br)cc2[C@]12ON=C(c1cccc(Cl)c1F)N2c1cccc(Cl)c1	4.4	3.2	GI50 (HepG2): 2.5 µM; GI50 [2]: 3.5 µM
O=C1Nc2ccc(Cl)cc2[C@]12ON=C(c1ccc(Cl)cc1)N2c1cccc(Cl)c1	29	25.6	–
O=C1Nc2cc(Cl)ccc2[C@]12ON=C(c1ccc(Cl)cc1)N2c1ccccc1	30.6	26.5	–
O=C1Nc2ccc(Br)cc2[C@]12ON=C(c1cccc(Cl)c1)N2c1ccc(F)c(Cl)c1	7.2	6.6	GI50 (HepG2): 4 µM; GI50 [2]: 6.7 µM
COc1ccc(C2=N[C@@H](c3ccc(Cl)cc3)[C@@H](c3ccc(Cl)cc3)N2C(=O)N2CCNC(=O)C2)c(OC(C)C)c1 [NUTLIN-3]	47.8	4	–

Compound	GI50 [1] [µM]	GI50 [3] [µM]	other results
O=C1Nc2ccc(Br)cc2[C@]12ON=C(c1cccc(Cl)c1)N2c1cccc(Cl)c1	2.9	2	Activity [4]: inactive; Activity (HCT-116 [5]): Active; half-life [6]: 33.5 min; GI50 (HepG2): 2.1 µM; Stability [7]: Stable; GI50 [2]: 2.1 µM; Activity (HCT-116 [8]): Active; Activity (HCT-116 [9]): Active; metabolised at 72 h [10]: 38%
Cc1ccc(C2=NO[C@@]3(C(=O)Nc4cc(Cl)ccc43)N2c2ccccc2)cc1	–	50.6	–
O=C1Nc2ccc(Cl)cc2[C@]12ON=C(c1ccccc1)N2c1ccc(Cl)cc1	27	27.1	–
O=C1Nc2ccc(Br)cc2[C@]12ON=C(c1ccccc1)N2c1cccc(Cl)c1	7.5	4.7	GI50 (HepG2): 3.5 µM; GI50 [2]: 4.2 µM
O=C1Nc2ccc(Cl)cc2[C@]12ON=C(c1cccc(Cl)c1)N2c1cccc(Cl)c1	6.8	4.6	GI50 (HepG2): 3.3 µM; GI50 [2]: 3.9 µM
O=C1Nc2cc(Cl)ccc2[C@]12ON=C(c1ccccc1)N2c1ccc(Cl)cc1	–	31.8	–
O=C1Nc2ccccc2[C@]12ON=C(c1cccc(Cl)c1)N2c1ccc(Cl)cc1	–	38.4	–
O=C1Nc2ccccc2[C@]12ON=C(c1ccccc1)N2c1ccc(F)cc1	–	99.6	–
O=C1Nc2ccc(Br)cc2[C@]12ON=C(c1ccccc1)N2c1ccccc1	–	13.5	–
O=C1Nc2ccccc2[C@]12ON=C(c1ccc(Cl)cc1)N2c1ccc(Cl)cc1	–	31.2	–
O=C1Nc2cc(Cl)ccc2[C@]12ON=C(c1ccccc1)N2c1ccccc1	35.5	28.4	–
O=C1Nc2ccccc2[C@]12ON=C(c1ccccc1)N2c1cccc(Cl)c1	–	70.1	–
O=C1Nc2cc(Cl)ccc2[C@]12ON=C(c1cccc(Cl)c1)N2c1cccc(Cl)c1	7.8	6.6	GI50 (HepG2): 4.4 µM; GI50 [2]: 6.7 µM
O=C1Nc2cc(Cl)ccc2[C@]12ON=C(c1ccc(Cl)cc1)N2c1cccc(Cl)c1	–	20.2	–
O=C1Nc2ccccc2[C@]12ON=C(c1ccc(Cl)cc1)N2c1cccc(Cl)c1	–	33.7	–
O=C1Nc2ccc(Br)cc2[C@]12ON=C(c1cccc(Br)c1)N2c1cccc(Br)c1	6	3.2	GI50 (HepG2): 2.2 µM; GI50 [2]: 3.7 µM
